Data as given in ChEMBL document CHEMBL1201862, “PubChem BioAssay data set” (2004).
Calls of active or inactive are those of the source.

Columns and labels:
[1] = A cytotoxicity screen of small molecule inhibitors of the PhoP region in Salmonella typhi identified in the primary screen. [Related pubchem assays: 1850, 1864, 1985 ]; format: functional
[2] = target: T1, Aspartyl aminopeptidase (Plasmodium falciparum 3D7, UniProt Q8I2J3)
T1 sequence (Q8I2J3 whole entry): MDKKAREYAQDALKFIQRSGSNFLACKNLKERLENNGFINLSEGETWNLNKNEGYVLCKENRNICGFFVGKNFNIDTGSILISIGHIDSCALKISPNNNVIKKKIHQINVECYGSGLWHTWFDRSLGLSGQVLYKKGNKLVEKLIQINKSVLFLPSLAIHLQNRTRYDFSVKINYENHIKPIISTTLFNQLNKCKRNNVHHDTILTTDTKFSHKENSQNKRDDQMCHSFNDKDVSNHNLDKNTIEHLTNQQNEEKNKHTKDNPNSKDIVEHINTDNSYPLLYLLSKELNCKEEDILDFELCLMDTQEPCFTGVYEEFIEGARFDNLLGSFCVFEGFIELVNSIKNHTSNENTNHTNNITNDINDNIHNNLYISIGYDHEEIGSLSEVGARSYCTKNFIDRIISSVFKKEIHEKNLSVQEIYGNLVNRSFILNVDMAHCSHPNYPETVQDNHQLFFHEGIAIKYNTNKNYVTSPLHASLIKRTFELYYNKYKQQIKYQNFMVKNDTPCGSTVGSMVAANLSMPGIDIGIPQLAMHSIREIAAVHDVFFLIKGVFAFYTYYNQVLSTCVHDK

[3] = target: Procathepsin L (Homo sapiens, UniProt P07711)
Chain of Procathepsin L (P07711 whole entry): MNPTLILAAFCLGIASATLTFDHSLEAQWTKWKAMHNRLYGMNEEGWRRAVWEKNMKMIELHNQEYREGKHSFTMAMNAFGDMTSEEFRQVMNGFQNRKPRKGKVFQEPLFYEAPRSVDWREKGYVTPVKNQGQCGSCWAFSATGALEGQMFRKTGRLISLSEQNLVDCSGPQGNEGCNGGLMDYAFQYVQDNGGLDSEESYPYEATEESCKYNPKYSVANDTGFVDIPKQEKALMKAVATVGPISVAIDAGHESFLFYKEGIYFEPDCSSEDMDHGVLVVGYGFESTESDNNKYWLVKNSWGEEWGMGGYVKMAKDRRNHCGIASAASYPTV

[4] = target: Luciferin 4-monooxygenase (Photinus pyralis, UniProt P08659); assay: Counter Screen for Luciferase-based Assay Positives. [Related pubchem assays: 620, 618, 411 ]
Chain of Luciferin 4-monooxygenase (P08659 whole entry): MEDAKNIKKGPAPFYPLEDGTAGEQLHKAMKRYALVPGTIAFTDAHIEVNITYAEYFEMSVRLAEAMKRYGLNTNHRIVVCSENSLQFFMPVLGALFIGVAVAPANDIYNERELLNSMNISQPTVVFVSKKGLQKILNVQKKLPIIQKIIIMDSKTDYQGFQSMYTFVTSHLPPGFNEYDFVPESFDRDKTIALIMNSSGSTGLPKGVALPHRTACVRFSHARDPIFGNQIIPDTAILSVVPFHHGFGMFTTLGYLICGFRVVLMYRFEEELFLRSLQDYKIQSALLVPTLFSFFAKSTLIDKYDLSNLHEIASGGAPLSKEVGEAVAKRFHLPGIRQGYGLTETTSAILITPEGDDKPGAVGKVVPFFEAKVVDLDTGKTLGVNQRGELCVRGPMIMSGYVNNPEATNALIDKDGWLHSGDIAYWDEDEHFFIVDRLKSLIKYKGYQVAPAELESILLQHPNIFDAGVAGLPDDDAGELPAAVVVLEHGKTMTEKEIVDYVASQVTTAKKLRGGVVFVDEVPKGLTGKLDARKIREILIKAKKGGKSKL

[5] = target: Glyceraldehyde-3-phosphate dehydrogenase (Homo sapiens, UniProt P04406)
Chain of Glyceraldehyde-3-phosphate dehydrogenase (P04406 whole entry): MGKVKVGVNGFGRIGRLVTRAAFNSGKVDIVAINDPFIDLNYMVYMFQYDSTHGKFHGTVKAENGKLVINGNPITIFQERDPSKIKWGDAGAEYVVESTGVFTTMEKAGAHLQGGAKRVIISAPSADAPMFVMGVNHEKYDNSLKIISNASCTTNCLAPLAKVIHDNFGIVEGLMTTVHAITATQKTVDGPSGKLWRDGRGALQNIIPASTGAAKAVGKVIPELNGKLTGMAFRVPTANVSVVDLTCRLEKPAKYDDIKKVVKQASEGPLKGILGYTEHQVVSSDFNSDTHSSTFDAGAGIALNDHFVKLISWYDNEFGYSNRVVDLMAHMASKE

[6] = inhibitors of SNCA 5'UTR-driven reporter translation, confirmation, H4 neuroglioma cells, luminescence (AID 1988); format: functional, cell-based
[7] = cytotoxicity in HEK-293T cells, dose response, cytotoxicity control for BCR NF-kB inhibitor project, luminescence, B-cell screen hits (AID 489021); format: functional, cell-based;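 note: HEK-293T cells carrying an NF-kB luciferase reporter; cells exposed to compound for about 14 hours before viability readout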
[8] = target: Heat shock protein HSP 90-alpha (Homo sapiens, UniProt P07900); assay: Luminescence-based dose response biochemical high throughput screening assay for inhibitors of the Heat Shock Protein 90 (HSP90). [Related pubchem assays: 1831 (Summary AID.), 1846 (Confirmation screen.), 1789 (Primary screen.)]
[9] = test system: HT-1080; assay: cytotoxicity in HT1080 fibrosarcoma cells, cell-based, fluorescence readout (AID 620); format: functional; details: Homo sapiens
[10] = inhibitors of firefly luciferase expression or activity, dose response, H4 neuroglioma cells, luminescence (AID 1990); format: functional, cell-based
[11] = target: T2, Zinc finger protein mex-5 (Caenorhabditis elegans, UniProt Q9XUB2); assay: MEX-5/TCR-2 RNA interaction inhibitors, dose response, biochemical, C. elegans, fluorescence polarization (AID 1960)
T2 sequence (Q9XUB2 whole entry): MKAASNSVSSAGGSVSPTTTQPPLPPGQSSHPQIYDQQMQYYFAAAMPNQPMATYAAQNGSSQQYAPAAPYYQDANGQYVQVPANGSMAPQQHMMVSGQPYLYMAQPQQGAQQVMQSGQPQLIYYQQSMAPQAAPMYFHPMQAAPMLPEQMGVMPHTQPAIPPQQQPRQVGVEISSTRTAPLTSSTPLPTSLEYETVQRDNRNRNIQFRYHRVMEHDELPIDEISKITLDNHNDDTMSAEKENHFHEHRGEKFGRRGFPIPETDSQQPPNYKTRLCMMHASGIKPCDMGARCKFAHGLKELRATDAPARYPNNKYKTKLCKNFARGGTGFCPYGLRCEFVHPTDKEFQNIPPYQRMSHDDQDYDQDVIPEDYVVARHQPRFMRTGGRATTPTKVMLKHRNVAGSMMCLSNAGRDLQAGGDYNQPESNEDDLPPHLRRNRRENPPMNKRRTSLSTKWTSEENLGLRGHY

[12] = target: T3, RNA-binding protein pos-1 (Caenorhabditis elegans, UniProt G5EF15); assay: inhibitors of POS-1/mex-3 RNA binding, dose response, biochemical, fluorescence polarization (AID 1964);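 note: purified POS-1 fused to maltose binding protein made in E. coli; potency of compounds blocking POS-1 binding to fluorescent RNA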
T3 sequence (G5EF15 whole entry): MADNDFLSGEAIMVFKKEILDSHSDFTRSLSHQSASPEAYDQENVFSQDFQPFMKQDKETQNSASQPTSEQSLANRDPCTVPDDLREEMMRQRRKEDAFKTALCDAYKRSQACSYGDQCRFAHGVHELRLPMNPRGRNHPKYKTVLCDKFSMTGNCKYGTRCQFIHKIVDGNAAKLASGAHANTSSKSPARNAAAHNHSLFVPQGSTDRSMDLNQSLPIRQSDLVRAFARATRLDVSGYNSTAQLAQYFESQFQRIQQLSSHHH

[13] = Luminescence Cell-Based Dose Response HTS to Identify Inhibitors of 5'UTR Stem-Loop Driven Prion Protein mRNA Translation in H4 Neuroglioblastoma Cells. [Related pubchem assays: 1827 (Project Summary), 1813 (Primary HTS)]; format: functional
[14] = target: T4, Acyl-homoserine lactone acylase PvdQ (Pseudomonas aeruginosa (strain LESB58), UniProt Q9I194); assay: P. aeruginosa PvdQ acylase inhibitors, dose response, biochemical, fluorescence, plate reader and imaging, cherry-picks (AID 493231)
T4 sequence (Q9I194 whole entry): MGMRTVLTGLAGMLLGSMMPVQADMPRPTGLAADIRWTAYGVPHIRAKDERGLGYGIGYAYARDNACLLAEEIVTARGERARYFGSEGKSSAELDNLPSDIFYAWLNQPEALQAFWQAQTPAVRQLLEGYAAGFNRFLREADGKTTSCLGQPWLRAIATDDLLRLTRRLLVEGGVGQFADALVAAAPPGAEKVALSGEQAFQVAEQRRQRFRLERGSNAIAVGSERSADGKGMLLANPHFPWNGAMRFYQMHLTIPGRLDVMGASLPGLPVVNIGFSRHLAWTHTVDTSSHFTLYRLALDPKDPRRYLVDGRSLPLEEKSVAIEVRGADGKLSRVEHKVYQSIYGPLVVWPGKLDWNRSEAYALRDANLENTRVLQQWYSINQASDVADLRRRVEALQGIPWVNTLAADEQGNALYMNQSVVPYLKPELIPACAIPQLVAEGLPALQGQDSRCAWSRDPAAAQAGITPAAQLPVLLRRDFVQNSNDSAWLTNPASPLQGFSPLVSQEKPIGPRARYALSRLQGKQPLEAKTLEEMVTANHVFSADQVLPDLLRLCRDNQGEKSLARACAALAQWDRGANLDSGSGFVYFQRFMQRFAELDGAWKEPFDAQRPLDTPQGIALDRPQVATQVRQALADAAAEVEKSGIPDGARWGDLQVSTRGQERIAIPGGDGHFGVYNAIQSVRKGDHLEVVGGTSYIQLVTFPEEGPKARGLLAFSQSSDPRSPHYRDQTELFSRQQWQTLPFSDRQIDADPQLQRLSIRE

[15] = target: Cytochrome P450 2C19 (Homo sapiens, UniProt P33261); assay: Cytochrome panel assay with activity outcomes. Panel member name: p450-cyp2c19 Compounds with AC50 equal or less than 10 uM are considered active; format: functional; details: read-out: AC50
Chain of Cytochrome P450 2C19 (P33261 whole entry): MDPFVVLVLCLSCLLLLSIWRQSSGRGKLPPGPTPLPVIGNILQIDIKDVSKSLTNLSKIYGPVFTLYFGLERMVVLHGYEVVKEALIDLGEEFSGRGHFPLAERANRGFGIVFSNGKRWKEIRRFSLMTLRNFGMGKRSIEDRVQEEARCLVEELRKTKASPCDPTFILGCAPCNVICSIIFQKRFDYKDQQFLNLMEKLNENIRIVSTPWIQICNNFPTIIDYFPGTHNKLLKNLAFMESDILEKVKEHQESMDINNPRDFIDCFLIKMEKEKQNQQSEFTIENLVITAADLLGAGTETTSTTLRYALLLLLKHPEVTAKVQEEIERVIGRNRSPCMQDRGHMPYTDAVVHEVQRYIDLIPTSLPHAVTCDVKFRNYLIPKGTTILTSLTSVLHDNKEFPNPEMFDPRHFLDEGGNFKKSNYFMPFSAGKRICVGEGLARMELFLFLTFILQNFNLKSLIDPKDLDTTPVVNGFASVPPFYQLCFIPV

[16] = target: Cytochrome P450 2D6 (Homo sapiens, UniProt P10635);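 note: CYP2D6 member of a cytochrome P450 panel assay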
Chain of Cytochrome P450 2D6 (P10635 whole entry): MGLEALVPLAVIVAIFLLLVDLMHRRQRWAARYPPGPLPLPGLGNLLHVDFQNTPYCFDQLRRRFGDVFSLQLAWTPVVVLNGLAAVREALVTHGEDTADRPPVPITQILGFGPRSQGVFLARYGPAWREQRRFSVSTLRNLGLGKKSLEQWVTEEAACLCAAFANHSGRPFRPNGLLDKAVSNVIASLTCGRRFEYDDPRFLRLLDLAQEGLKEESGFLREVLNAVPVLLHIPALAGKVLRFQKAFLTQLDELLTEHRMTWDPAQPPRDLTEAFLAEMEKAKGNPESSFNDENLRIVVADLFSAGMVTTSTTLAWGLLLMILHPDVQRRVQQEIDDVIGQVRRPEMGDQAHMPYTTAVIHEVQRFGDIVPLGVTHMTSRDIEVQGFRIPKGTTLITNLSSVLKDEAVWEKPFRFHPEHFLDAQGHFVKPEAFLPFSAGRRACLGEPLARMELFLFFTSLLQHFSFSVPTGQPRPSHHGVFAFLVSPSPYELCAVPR

[17] = test system: Streptococcus sp. 'group A'; assay: growth inhibition of control SK(-) GAS strain, dose response, counter-screen for streptokinase expression inhibitor project, luminescence, kanamycin, BacTiterGlo, confirmation (AID 1900); format: functional, organism-based
[18] = target: T5, X-box-binding protein 1 (Homo sapiens, UniProt P17861); format: functional, Cricetulus griseus;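 note: confirmatory dose-response counter-screen serving a CHOP assay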
T5 sequence (P17861 whole entry): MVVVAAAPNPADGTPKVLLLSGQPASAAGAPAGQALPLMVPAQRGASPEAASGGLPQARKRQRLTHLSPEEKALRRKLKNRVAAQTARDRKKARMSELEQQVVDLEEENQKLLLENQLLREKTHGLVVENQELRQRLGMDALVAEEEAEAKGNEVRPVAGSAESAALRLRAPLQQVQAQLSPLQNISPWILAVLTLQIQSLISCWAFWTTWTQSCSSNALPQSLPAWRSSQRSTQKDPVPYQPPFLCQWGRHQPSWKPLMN

[19] = test system: Streptococcus; assay: Group A Streptococcus viability loss, dose response, counter-screen for streptokinase expression inhibitor project, luminescence, BacTiterGlo (AID 1915); format: functional, organism-based;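 note: potency for reduction of bacterial viability or growth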
[20] = target: T6, Streptokinase A (Streptococcus pyogenes serotype M1, UniProt P10520); assay: S. pyogenes streptokinase expression inhibitors, potency, dose response, plasminogen activation absorbance, OD405 (AID 1914); format: functional, Streptococcus pyogenes M1 GAS;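 note: secreted streptokinase activity via plasminogen activation per viability signal from cell pellet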
T6 sequence (P10520 whole entry): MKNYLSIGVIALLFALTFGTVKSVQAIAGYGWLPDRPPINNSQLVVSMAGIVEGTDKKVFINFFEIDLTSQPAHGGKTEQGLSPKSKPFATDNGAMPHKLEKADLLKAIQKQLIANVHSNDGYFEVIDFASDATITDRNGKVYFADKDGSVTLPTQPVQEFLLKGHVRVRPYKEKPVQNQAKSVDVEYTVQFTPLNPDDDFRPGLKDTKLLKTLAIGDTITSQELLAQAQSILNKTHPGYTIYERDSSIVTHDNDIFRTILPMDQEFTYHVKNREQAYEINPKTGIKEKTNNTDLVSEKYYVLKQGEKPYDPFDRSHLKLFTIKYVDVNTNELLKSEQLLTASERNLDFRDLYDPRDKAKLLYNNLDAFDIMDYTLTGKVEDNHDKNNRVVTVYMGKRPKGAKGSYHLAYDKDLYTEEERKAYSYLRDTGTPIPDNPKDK

[21] = target: Trypsin (Sus scrofa, UniProt P00761); assay: porcine trypsin inhibitors, dose response, selectivity assay for Rce1 protease inhibitor project, biochemical, quenched peptide fluorescence, cherry-pick (AID 488789)
Chain of Trypsin (P00761 whole entry): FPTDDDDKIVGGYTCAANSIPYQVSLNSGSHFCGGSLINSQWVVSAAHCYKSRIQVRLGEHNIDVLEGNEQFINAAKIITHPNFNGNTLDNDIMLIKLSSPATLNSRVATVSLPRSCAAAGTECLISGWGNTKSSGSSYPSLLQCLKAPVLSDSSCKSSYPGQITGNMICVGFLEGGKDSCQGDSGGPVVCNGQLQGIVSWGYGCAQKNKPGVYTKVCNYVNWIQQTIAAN

[22] = target: DNA dC->dU-editing enzyme APOBEC-3G (Homo sapiens, UniProt Q9HC16); assay: Dose Response confirmation of small molecule APOBEC3G DNA Deaminase Inhibitors via a fluorescence-based single-stranded DNA deaminase assay. [Related pubchem assays (depositor defined):AID493012, AID493028]; format: functional
Chain of DNA dC->dU-editing enzyme APOBEC-3G (Q9HC16 whole entry): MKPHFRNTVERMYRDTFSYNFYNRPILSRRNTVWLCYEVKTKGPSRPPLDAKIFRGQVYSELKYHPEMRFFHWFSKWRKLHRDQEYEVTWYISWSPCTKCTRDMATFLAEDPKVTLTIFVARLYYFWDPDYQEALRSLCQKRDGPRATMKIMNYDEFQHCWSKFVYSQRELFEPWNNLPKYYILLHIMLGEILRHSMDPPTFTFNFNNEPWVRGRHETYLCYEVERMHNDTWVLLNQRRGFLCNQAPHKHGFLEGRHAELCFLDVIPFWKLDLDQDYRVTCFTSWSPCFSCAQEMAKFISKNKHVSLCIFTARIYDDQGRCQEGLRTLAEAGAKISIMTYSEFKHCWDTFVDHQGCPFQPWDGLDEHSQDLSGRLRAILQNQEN

[23] = target: T7, SUMO-activating enzyme (Homo sapiens, UniProt Q9UBT2); assay: inhibitors of in vitro SUMOylation cascade, primary screen, biochemical, HTRF, uHTS (AID 2006); format: protein-complex assay
T7 sequence (Q9UBE0 whole entry): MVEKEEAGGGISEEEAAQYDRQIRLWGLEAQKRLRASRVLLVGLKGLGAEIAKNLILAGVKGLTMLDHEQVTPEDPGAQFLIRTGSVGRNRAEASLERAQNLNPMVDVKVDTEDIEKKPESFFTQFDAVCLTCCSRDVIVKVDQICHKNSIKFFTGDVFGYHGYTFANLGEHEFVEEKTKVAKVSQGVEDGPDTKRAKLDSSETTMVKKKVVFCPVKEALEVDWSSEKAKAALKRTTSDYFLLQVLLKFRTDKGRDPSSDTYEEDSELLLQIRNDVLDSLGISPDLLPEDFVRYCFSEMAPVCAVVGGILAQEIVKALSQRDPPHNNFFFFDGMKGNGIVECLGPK
T7 sequence (Q9UBT2 whole entry): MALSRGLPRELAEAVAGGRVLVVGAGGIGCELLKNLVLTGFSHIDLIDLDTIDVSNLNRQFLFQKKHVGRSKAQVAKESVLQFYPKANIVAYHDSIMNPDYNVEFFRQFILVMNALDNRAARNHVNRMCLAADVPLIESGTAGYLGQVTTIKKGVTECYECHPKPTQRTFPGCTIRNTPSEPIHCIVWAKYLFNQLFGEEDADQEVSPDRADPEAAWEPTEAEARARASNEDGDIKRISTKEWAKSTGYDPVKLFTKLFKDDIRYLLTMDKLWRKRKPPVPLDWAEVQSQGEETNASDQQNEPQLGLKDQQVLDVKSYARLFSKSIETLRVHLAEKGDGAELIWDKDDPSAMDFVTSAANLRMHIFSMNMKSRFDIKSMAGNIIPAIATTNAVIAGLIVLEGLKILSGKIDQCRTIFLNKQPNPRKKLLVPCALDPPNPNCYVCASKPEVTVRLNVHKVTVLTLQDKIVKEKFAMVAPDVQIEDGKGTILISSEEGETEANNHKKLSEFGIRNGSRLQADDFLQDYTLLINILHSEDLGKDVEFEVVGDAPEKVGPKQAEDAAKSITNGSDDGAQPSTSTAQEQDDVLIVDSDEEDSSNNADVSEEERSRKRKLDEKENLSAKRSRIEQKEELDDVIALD

[24] = target: T7, SUMO-activating enzyme; assay: SUMOylation inhibitor hit validation, confirmation, SUMOylation inhibitor project, biochemical, AlphaScreen (AID 2018); format: functional
[25] = target: Induced myeloid leukemia cell differentiation protein Mcl-1 (Homo sapiens, UniProt Q07820); format: functional
Chain of Induced myeloid leukemia cell differentiation protein Mcl-1 (Q07820 whole entry): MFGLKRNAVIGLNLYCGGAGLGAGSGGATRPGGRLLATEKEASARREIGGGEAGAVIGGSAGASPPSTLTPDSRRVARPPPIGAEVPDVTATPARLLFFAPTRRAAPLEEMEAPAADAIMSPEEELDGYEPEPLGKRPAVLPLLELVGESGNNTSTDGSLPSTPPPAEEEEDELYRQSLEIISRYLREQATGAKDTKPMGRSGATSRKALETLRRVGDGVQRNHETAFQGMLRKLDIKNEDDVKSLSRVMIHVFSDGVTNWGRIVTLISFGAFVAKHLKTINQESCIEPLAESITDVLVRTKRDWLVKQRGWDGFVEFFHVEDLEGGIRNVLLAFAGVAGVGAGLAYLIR

Cc1ccc(OCCCCn2c(CO)nc3ccccc32)cc1
EC50 [1]: > 50 µM (active)

COc1ccc(N2C(=O)/C(=C\Nn3cnnc3)c3ccccc3C2=O)cc1
IC50 [2]: 1.56 µM (active) | IC50 [3]: > 59.6 µM (not active)

CCN(CC)c1ccc2cc(NC(=O)CCC(=O)O)c(=O)oc2c1
EC50 [4]: > 100 µM (not active) | IC50 [5]: > 100 µM (not active) | EC50 [6]: 0.491 µM (active) | IC50 [7]: > 80 µM (inactive) | IC50 [8]: > 60 µM (not active) | EC50 [9]: > 50 µM (not active) | EC50 [10]: < 0.1 µM (active) | EC50 [11]: 7.36 µM (active) | EC50 [12]: 120 µM (inconclusive) | EC50 [13]: 3.7 µM (active)

CCOC(=O)c1ccc(S(=O)(=O)N2CCN(CCC#N)CC2)cc1
EC50 [1]: > 50 µM (active)

COc1ccc(/C=C/C(=O)c2ccoc2)cc1
AC50 [14]: 11.4 µM (active) | AC50 [15]: 14.1 µM (inconclusive) | AC50 [16]: 25.1 µM (inconclusive)

CCc1nc2c(cnn2-c2ccc(Cl)cc2)c(=O)n1-c1ccc(OC)cc1
EC50 [17]: 28.3 µM (active) | Absolute IC50 (XBP1) [18]: 10 µM | EC50 [19]: > 150 µM (not active) | EC50 [20]: > 150 µM (not active)

COc1ccc(S(=O)(=O)NCC2CCCO2)cc1NC(=O)c1ccccc1F (centres undefined)
AC50 [21]: 33 µM (active)

S=C(Nc1cc(Cl)ccc1Cl)Nn1cnnc1
IC50 [2]: 0.662 µM (active) | IC50 [3]: > 59.6 µM (not active)

CCOC(=O)c1c(NC(=O)c2ccccc2Cl)sc2c1CCc1ccccc1-2
IC50 [22]: > 100 µM (inactive)

FC(F)C(F)(F)C(F)(F)C(F)(F)c1cc(-c2ccccc2)[nH]n1
Absolute IC50 (XBP1) [18]: 10 µM

O=C(Nc1cc(Cl)ccc1Cl)Nn1cnnc1
IC50 [2]: 0.5 µM (active) | IC50 [3]: > 59.6 µM (not active)

N=C1S/C(=C\c2ccco2)C(=O)N1c1ccc2c(c1)OCO2
IC50 [23]: 39.9 µM (active) | IC50 [24]: 13.4 µM (active) | IC50 [25]: 9.96 µM (active)

Cc1cc(S(=O)(=O)NCC2CC2)c(Cl)cc1Cl
AC50 [14]: 1.1 µM (active)

COc1ccc(-c2ccc(OC)cc2)cc1
AC50 [14]: 78.8 µM (active)

O=c1c2ccccc2[nH]c2ccc(F)cc12
EC50 [1]: > 50 µM (active)
